According to patent US11208385B2, “N-substituted imidazole carboxylate compound, preparation method and use” (priority 2017, dated 2021):
Where two headings read alike, the source gives them in different places.

Legend:
SD rats [1] = tested on: SD rats
Method: 30 male SD rats weighing 250˜300 g were randomly divided into 6 groups, 5 rats for one group. […] Each drug was continually infused to rats via caudal vein, and made the righting reflex abolish, and the abolition of righting reflex was maintained for 1 hour. The wake time after drug withdrawal and the time of full recovery were recorded.

SD rats [2] = tested on: SD rats; remark: listed apart in the source
Method: 150 male SD rats weighing 250˜300 g were randomly divided into 15 groups, 10 rats for one group. […] Drugs were injected to rats via caudal vein, and the injection time was 15 seconds. The abolition of righting reflex for 30 s or above was used as the indicator producing anaesthetic effect.

[3] = In vitro degradation experiment in rat liver homogenate (HPLC); type: in vitro ADME; conditions: for Residual rate at 5 min (%) / Residual rate at 10 min (%) / Residual rate at 20 min (%): rat liver homogenate, 37° C., 50 μg/mL
Method: In Vitro Degradation Experiment of Compounds.
Chromatographic condition: mobile phase is methanol: H2O=65:35, and the water phase contains 0.06% ammonium acetate; the flow rate is 1 mL/min; the column temperature is 25° C.
Apparatus: Agilent 1100 Series. Chromatographic column: Aglent Eclipse Plus C18 column, 5 μm 4.6*[…].
The linear range is 1-50 μg/mL.
After fasting for 24 h, male SD rats were treated to collect liver, and the water on the surface of liver was removed using the filter paper, then liver was weighed. […] Then, the homogenate was centrifugated at 10000 g for 20 min at the temperature of 4° C. The supernatant solution was collected, and 14 samples (2 mL) of liver homogenate were taken out and warmed to 37° C. in water bath. Each compound (content 10 mg/mL, 10 μl) was added, respectively, to make a concentration of 50 μg/mL in liver homogenate.
[…] After centrifugation, the supernatant solution was taken out and injected. The concentration of each compound at each time point was detected, that was divided by the initial concentration of each compound, to obtain the degradation ratio of each compound.

corticosterone = test: Serum corticosterone after dexamethasone suppression and ACTH stimulation in rats (ELISA); conditions: ACTH stimulation
Method: Male rats (250˜300 g) were chosen as test animals, and the content of corticosterone in serum of rats was measured using ELISA kit and ELISA reader. 65 SD rats were randomly divided into 13 groups, five rats for each group. […] 30 min After administration of ACTH, the concentrations of two cortical hormones in animal body were determined.

11-β hydroxylase = target: T1, 11-β hydroxylase (Homo sapiens, UniProt P15538); conditions: 11-β hydroxylase versus GABAA receptor; cited from earlier work
T1 sequence (P15538 25-503): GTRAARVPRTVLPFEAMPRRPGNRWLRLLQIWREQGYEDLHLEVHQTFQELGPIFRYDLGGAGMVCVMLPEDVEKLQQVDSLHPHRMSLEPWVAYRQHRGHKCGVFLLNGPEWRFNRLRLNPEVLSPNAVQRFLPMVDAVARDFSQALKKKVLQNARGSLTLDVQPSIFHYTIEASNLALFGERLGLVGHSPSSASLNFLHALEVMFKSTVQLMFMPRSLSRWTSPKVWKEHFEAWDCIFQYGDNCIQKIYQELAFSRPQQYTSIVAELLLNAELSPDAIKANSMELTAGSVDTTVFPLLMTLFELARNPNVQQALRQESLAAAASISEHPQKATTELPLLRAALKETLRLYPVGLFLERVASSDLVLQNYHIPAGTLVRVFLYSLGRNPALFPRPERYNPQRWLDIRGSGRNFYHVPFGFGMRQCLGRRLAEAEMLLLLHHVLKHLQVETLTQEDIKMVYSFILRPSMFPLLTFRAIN

[4] = in vivo, 3 mg/kg; cited from earlier work
[5] = after 1 h continual infusion, from recovery of righting reflex to free walk
[6] = after 1 h continual infusion, recovery time of righting reflex after discontinuance
[7] = single iv dose of 2ED50, 10 rats per group
[8] = single iv dose of 2ED50, from abolition to recovery of righting reflex
[9] = single iv dose of 2ED50, from recovery of righting reflex to free walk

COC(=O)C1(OC(=O)c2cncn2[C@H](C)c2ccccc2)CC1 [CPMM, reference compound]
Incidence rate (%) of muscle tremor (SD rats [1]; male, SD, rat, in vivo): 90% | Time of complete recovery (SD rats [1]; rat, in vivo): 25 ± 9 min | Wake time after drug withdrawal (SD rats [1]; rat, in vivo): 12 ± 7 min | Incidence rate (%) of muscle tremor (SD rats [2]; male, SD, rat, in vivo, iv): 80% | Onset of anaesthesia (SD rats [2]; rat, in vivo): immediately anesthetize the rats | Time of complete recovery (SD rats [2]; rat, in vivo, iv): 2.3 ± 2.1 min | Time of keeping anaesthesia (SD rats [2]; rat, in vivo, iv): 2.5 ± 1.3 min | Residual rate at 5 min (%) [3]: 0% | Residual rate at 10 min (%) [3]: 0% | Residual rate at 20 min (%) [3]: 0%

CCOC(=O)c1cncn1[C@H](C)c1ccccc1 [Etomidate, reference compound]
Effect on self-synthesis of adrenal cortical hormones (corticosterone): significantly suppress | Time of complete recovery (SD rats [1]; [5]): 85 ± 29 min | Wake time after drug withdrawal (SD rats [1]; [6]): 18 ± 10 min | Incidence rate (%) of muscle tremor (SD rats [1]; continual infusion for 1 h): 60% | Combining capacity with 11-β hydroxylase relative to GABAA receptor (11-β hydroxylase): 100 times | Onset of anaesthesia (SD rats [2]; equivalent dose of anesthesia): immediately anesthetize the rats | Incidence rate (%) of muscle tremor (SD rats [2]; [7]): 40% | Time of keeping anaesthesia (SD rats [2]; [8]): 6.3 ± 2.8 min | Time of complete recovery (SD rats [2]; [9]): 7.2 ± 1.7 min | Minimum effective concentration producing anaesthetic effect in plasma [4]: 200 ng/mL | Minimum effective concentration to inhibit the synthesis of cortical hormones [4]: 8 ng/mL | Time of maintaining the drug concentration of >8 ng/mL in plasma [4]: 8 h | Time of maintaining the drug concentration of >200 ng/mL in plasma [4]: 8 min | Decomposition under the action of liver homogenate of rats ([3]; comparative experiment): slowly decomposed | Residual rate at 5 min (%) [3]: 97.9% | Residual rate at 10 min (%) [3]: 95.9% | Residual rate at 20 min (%) [3]: 95.9%

COC(=O)OCOC(=O)c1cncn1[C@H](C)c1ccccc1 [Example 1]
Time of complete recovery (SD rats [1]; [5]): 4.1 ± 1.1 min | Wake time after drug withdrawal (SD rats [1]; [6]): 2.1 ± 1.1 min | Incidence rate (%) of muscle tremor (SD rats [1]; continual infusion for 1 h): 0% | Incidence rate (%) of muscle tremor (SD rats [2]; [7]): 0% | Time of keeping anaesthesia (SD rats [2]; [8]): 1.5 ± 0.6 min | Time of complete recovery (SD rats [2]; [9]): 1.4 ± 0.5 min | Residual rate at 5 min (%) [3]: 0% | Residual rate at 10 min (%) [3]: 0% | Residual rate at 20 min (%) [3]: 0%

CCOC(=O)OCOC(=O)c1cncn1[C@H](C)c1ccccc1 [Example 2]
Time of complete recovery (SD rats [1]; [5]): 3.1 ± 1.8 min | Wake time after drug withdrawal (SD rats [1]; [6]): 3.1 ± 1.2 min | Incidence rate (%) of muscle tremor (SD rats [1]; continual infusion for 1 h): 0% | Incidence rate (%) of muscle tremor (SD rats [2]; [7]): 0% | Time of keeping anaesthesia (SD rats [2]; [8]): 1 ± 0.5 min | Time of complete recovery (SD rats [2]; [9]): 2.5 ± 0.4 min | Residual rate at 5 min (%) [3]: 0% | Residual rate at 10 min (%) [3]: 0% | Residual rate at 20 min (%) [3]: 0%

CC(C)OC(=O)OCOC(=O)c1cncn1[C@H](C)c1ccccc1 [Example 3]
Time of complete recovery (SD rats [1]; [5]): 1.9 ± 0.9 min | Wake time after drug withdrawal (SD rats [1]; [6]): 3.4 ± 1.1 min | Incidence rate (%) of muscle tremor (SD rats [1]; continual infusion for 1 h): 0% | Incidence rate (%) of muscle tremor (SD rats [2]; [7]): 0% | Time of keeping anaesthesia (SD rats [2]; [8]): 2.1 ± 0.3 min | Time of complete recovery (SD rats [2]; [9]): 1.3 ± 0.5 min | Residual rate at 5 min (%) [3]: 0% | Residual rate at 10 min (%) [3]: 0% | Residual rate at 20 min (%) [3]: 0%

C[C@H](c1ccccc1)n1cncc1C(=O)OCOC(=O)OC(C)(C)C [Example 4]
Time of complete recovery (SD rats [1]; [5]): 90 ± 37 min | Wake time after drug withdrawal (SD rats [1]; [6]): 25 ± 24 min | Incidence rate (%) of muscle tremor (SD rats [1]; continual infusion for 1 h): 20% | Incidence rate (%) of muscle tremor (SD rats [2]; [7]): 0% | Time of keeping anaesthesia (SD rats [2]; [8]): 8.3 ± 1.4 min | Time of complete recovery (SD rats [2]; [9]): 6.1 ± 1.6 min | Residual rate at 5 min (%) [3]: 89.3% | Residual rate at 10 min (%) [3]: 60.1% | Residual rate at 20 min (%) [3]: 43.6%

CC(C)COC(=O)OCOC(=O)c1cncn1[C@H](C)c1ccccc1 [Example 5]
Time of complete recovery (SD rats [1]; [5]): 3.9 ± 2.6 min | Wake time after drug withdrawal (SD rats [1]; [6]): 6.2 ± 1.2 min | Incidence rate (%) of muscle tremor (SD rats [1]; continual infusion for 1 h): 10% | Incidence rate (%) of muscle tremor (SD rats [2]; [7]): 10% | Time of keeping anaesthesia (SD rats [2]; [8]): 3 ± 1.1 min | Time of complete recovery (SD rats [2]; [9]): 3.3 ± 2.1 min | Residual rate at 5 min (%) [3]: 0% | Residual rate at 10 min (%) [3]: 0% | Residual rate at 20 min (%) [3]: 0%

CCC(C)OC(=O)OCOC(=O)c1cncn1[C@H](C)c1ccccc1 (stereo partly drawn) [Example 6]
Time of complete recovery (SD rats [1]; [5]): 2.1 ± 1.5 min | Wake time after drug withdrawal (SD rats [1]; [6]): 3.1 ± 1.9 min | Incidence rate (%) of muscle tremor (SD rats [1]; continual infusion for 1 h): 0% | Incidence rate (%) of muscle tremor (SD rats [2]; [7]): 0% | Time of keeping anaesthesia (SD rats [2]; [8]): 2.4 ± 0.6 min | Time of complete recovery (SD rats [2]; [9]): 1.7 ± 0.4 min | Residual rate at 5 min (%) [3]: 4.7% | Residual rate at 10 min (%) [3]: 0.9% | Residual rate at 20 min (%) [3]: 0%
